# Where two headings read alike, the source gives them in different places.
# What was measured:
# [1] = test system: Karpas 299 lymphoma cell line positive for the oncogenic fusion protein NPM-ALK; assay: Tritiated thymidine uptake cell proliferation assay, Karpas 299; format: cell-based; conditions: Homo sapiens
# Procedure: (§1) Method: Tritiated Thymidine Uptake Cell Proliferation Assay
# (§2) The following procedure was used with parent untransformed BaF3 cells, BaF3 cells transformed with the oncogenic fusion protein NPM/ALK, NPM/ALK positive SUDHL-1 cells, NPM/ALK positive SUPM2, ALK-negative HL60 cells, NPM/ALK positive KARPAS-299 cells. The parent untransformed BaF3 cells or Alk-negative HL60 cells are used as controls. Cells were seeded in U-bottomed 96-well plates at 10000 cells/well in a volume of 100 μl in supplemented medium. In the case of the parent untransformed BaF3 cells, the medium was supplemented with IL-3. Serial dilutions of inhibitors were added to the appropriate wells and volumes adjusted to 200 μl. Controls were treated with the equivalent volume of vehicle, DMSO, alone. Plates were incubated at 37° C. for 72 h. 3[H]-thymidine (1 μCi/well) was added for the last 16 h of incubation. Cells were harvested on to paper filters and 3[H]-thymidine incorporation was measured using a scintillation counter (1430 MicroBeta, Wallac, Turku, Finland). The 50% inhibitory concentration (IC50) was defined as the concentration of inhibitor, expressed in nanomolar units, that gave a 50% decrease in 3[H]-thymidine uptake compared with controls.
# In Table 1 are listed results for selected examples of compounds of the invention, reported as percentage of inhibition of cell proliferation at 200 nM, obtained from cellular assays in Karpas 299 lymphoma cell line positive for the oncogenic fusion protein NPM-ALK.
# [2] = target: T1, BaF3 cell line transfected with the oncogenic fusion protein NPM-ALK and expressing the mutation L1196M (Homo sapiens, UniProt Q9UM73, L1196M, cells depend on it); assay: Tritiated thymidine uptake cell proliferation assay, BaF3 NPM-ALK L1196M; format: cell-based, murine; conditions: for GI50: averaged IC50 values of cell proliferation inhibition, class letters, read-out: IC50 BaF3 NPM-ALK L1196M cells; for % Inhibition BaF3 NPM-ALK L1196M cells: percentage of inhibition of cell proliferation at 200 nM
# T1 construct: fused on or other part: P06748 (Nucleophosmin)
# Procedure: as §1, §2
# In Table 2 are listed results for selected examples of compounds of the invention, reported as percentage of inhibition of cell proliferation at 200 nM, obtained from cellular assays in BaF3 cell line transfected with the oncogenic fusion protein NPM-ALK and expressing the mutation L1196M.
# In Table 3 are listed averaged IC50 values of cell proliferation inhibition for selected examples of compounds of the present invention, obtained from cellular assays in BaF3 cell line transfected with the oncogenic fusion protein NPM-ALK and expressing the mutation L1196M. The letter “A” designates an IC50 value between 1 nM and 50 nM, the letter “B” designates an IC50 value between 50 nM and 100 nM, the letter “C” designates an IC50 value between 100 and 500 nM.
# [3] = KARPAS-299, percentage of inhibition of cell proliferation at 200 nM, read-out: % Inhibition Karpas 299 cells
# [4] = KARPAS-299, read-out: % Inhibition Karpas 299 cells
# T1 sequence (Q9UM73 whole entry L1196M, the tested form may be a part): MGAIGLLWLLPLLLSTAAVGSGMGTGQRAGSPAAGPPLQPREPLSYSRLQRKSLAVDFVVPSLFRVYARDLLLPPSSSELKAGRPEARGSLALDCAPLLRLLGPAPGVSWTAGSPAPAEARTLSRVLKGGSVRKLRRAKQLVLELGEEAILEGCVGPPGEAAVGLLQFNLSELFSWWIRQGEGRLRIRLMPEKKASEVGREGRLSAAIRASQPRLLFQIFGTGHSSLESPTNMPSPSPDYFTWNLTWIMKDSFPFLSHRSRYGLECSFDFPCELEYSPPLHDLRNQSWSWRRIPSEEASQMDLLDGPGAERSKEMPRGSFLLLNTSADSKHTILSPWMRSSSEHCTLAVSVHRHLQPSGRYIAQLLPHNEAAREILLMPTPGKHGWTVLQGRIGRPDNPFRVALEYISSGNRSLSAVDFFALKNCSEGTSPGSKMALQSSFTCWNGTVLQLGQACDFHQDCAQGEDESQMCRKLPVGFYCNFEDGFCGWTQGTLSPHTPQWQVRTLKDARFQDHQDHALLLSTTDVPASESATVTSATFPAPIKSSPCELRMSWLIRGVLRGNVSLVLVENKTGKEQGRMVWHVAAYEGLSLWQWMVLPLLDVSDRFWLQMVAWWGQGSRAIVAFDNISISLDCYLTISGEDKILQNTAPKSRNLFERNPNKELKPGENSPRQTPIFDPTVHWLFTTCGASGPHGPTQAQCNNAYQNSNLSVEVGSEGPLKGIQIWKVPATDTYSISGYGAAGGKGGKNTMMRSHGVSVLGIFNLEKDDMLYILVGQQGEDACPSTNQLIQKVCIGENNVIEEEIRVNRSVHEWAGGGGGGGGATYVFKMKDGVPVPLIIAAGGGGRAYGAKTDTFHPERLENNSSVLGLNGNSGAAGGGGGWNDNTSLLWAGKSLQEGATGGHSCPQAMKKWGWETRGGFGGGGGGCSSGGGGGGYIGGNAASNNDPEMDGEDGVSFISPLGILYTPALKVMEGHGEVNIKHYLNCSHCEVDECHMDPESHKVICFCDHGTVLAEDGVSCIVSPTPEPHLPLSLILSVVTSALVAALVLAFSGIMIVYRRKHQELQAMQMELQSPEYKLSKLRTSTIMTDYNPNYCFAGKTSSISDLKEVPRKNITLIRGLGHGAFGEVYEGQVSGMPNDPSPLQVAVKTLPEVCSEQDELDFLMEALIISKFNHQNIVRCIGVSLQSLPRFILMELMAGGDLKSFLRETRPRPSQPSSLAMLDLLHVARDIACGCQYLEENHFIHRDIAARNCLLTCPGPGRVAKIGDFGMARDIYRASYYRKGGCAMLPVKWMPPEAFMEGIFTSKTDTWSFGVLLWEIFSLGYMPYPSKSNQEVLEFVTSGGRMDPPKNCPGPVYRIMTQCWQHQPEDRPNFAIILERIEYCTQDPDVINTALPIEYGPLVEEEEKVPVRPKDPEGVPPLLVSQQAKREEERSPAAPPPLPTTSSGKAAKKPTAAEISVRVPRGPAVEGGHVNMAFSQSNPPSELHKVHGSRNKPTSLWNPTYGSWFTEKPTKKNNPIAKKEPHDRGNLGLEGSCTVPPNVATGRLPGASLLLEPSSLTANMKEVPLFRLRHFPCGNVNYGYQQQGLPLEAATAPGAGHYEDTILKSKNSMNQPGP
smiles,measurement,setting,value
"CN1CCN(c2ccc(C(=O)Nc3n[nH]c4cc(-c5cccc(O)c5)c(Cc5cc(F)cc(F)c5)cc34)c(NC3CCOCC3)c2)CC1 [Example 4, N-[5-[(3,5-difluorophenyl)methyl]-6-(3-hydroxyphenyl)-1H-indazol-3-yl]-4-(4-methylpiperazin-1-yl)-2-(tetrahydropyran-4-ylamino)benzamide]",inhibition at 0.2 µM,[1]; [3],99%
same,GI50,[2],1 to 50 nM
same,% Inhibition BaF3 NPM-ALK L1196M cells,[2],99%
"Cc1cc(O)ccc1-c1cc2[nH]nc(NC(=O)c3ccc(N4CCN(C)CC4)cc3)c2cc1Cc1cc(F)cc(F)c1 [Example 34, N-[5-[(3,5-difluorophenyl)methyl]-6-(4-hydroxy-2-methyl-phenyl)-1H-indazol-3-yl]-4-(4-methylpiperazin-1-yl)benzamide]",inhibition at 0.2 µM,[1]; [3],100%
same,GI50,[2],1 to 50 nM
same,% Inhibition BaF3 NPM-ALK L1196M cells,[2],100%
"CN1CCN(c2ccc(C(=O)Nc3n[nH]c4cc(-c5ccc(N)nc5)c(Cc5cc(F)cc(F)c5)cc34)c(NC3CCOCC3)c2)CC1 [Example 11, N-[6-(6-amino-3-pyridyl)-5-[(3,5-difluorophenyl)methyl]-1H-indazol-3-yl]-4-(4-methylpiperazin-1-yl)-2-(tetrahydropyran-4-ylamino)benzamide]",inhibition at 0.2 µM,[1]; [3],95%
same,GI50,[2],50 to 100 nM
same,% Inhibition BaF3 NPM-ALK L1196M cells,[2],88%
"COCCNc1cc(N2CCN(C)CC2)ccc1C(=O)Nc1n[nH]c2cc(-c3ccc(O)c(F)c3)c(Cc3cccc(F)c3)cc12 [Example 42, N-[6-(3-fluoro-4-hydroxy-phenyl)-5-[(3-fluorophenyl)methyl]-1H-indazol-3-yl]-2-(2-methoxyethylamino)-4-(4-methylpiperazin-1-yl)benzamide]",inhibition at 0.2 µM,[1]; [4],100%
same,GI50,[2],50 to 100 nM
same,% Inhibition BaF3 NPM-ALK L1196M cells,[2],93%
"Cc1cc(O)ccc1-c1cc2[nH]nc(NC(=O)c3ccc(N4CCN(C)CC4)cc3NC3CCOCC3)c2cc1Cc1cc(F)cc(F)c1 [Example 5, N-[5-[(3,5-difluorophenyl)methyl]-6-(4-hydroxy-2-methyl-phenyl)-1H-indazol-3-yl]-4-(4-methylpiperazin-1-yl)-2-(tetrahydropyran-4-ylamino)benzamide]",inhibition at 0.2 µM,[1]; [3],100%
same,GI50,[2],1 to 50 nM
same,% Inhibition BaF3 NPM-ALK L1196M cells,[2],100%
"CN1CCN(c2ccc(C(=O)Nc3n[nH]c4cc(-c5ccc6[nH]ncc6c5)c(Cc5cc(F)cc(F)c5)cc34)c(NC3CCOCC3)c2)CC1 [Example 26, N-[5-[(3,5-difluorophenyl)methyl]-6-(1H-indazol-5-yl)-1H-indazol-3-yl]-4-(4-methylpiperazin-1-yl)-2-(tetrahydropyran-4-ylamino)benzamide]",inhibition at 0.2 µM,[1]; [3],99%
same,GI50,[2],1 to 50 nM
same,% Inhibition BaF3 NPM-ALK L1196M cells,[2],99%
"CN1CCN(c2ccc(C(=O)Nc3n[nH]c4cc(-c5ccc6c(c5)C(=O)NC6)c(Cc5cc(F)cc(F)c5)cc34)c(NC3CCOCC3)c2)CC1 [Example 28, N-[5-[(3,5-difluorophenyl)methyl]-6-(3-oxoisoindolin-5-yl)-1H-indazol-3-yl]-4-(4-methylpiperazin-1-yl)-2-(tetrahydropyran-4-ylamino)benzamide]",inhibition at 0.2 µM,[1]; [3],55%
same,% Inhibition BaF3 NPM-ALK L1196M cells,[2],60%
"CN1CCN(c2ccc(C(=O)Nc3n[nH]c4cc(-c5cnc6[nH]ccc6c5)c(Cc5cc(F)cc(F)c5)cc34)c(NC3CCOCC3)c2)CC1 [Example 29, N-[5-[(3,5-difluorophenyl)methyl]-6-(1H-pyrrolo[2,3-b]pyridin-5-yl)-1H-indazol-3-yl]-4-(4-methylpiperazin-1-yl)-2-(tetrahydropyran-4-ylamino)benzamide]",inhibition at 0.2 µM,[1]; [3],100%
same,GI50,[2],50 to 100 nM
same,% Inhibition BaF3 NPM-ALK L1196M cells,[2],98%
"Cc1cc(-c2cc3[nH]nc(NC(=O)c4ccc(N5CCN(C)CC5)cc4NC4CCOCC4)c3cc2Cc2cc(F)cc(F)c2)ccc1O [Example 21, N-[5-[(3,5-difluorophenyl)methyl]-6-(4-hydroxy-3-methyl-phenyl)-1H-indazol-3-yl]-4-(4-methylpiperazin-1-yl)-2-(tetrahydropyran-4-ylamino)benzamide]",inhibition at 0.2 µM,[1]; [3],100%
same,GI50,[2],1 to 50 nM
same,% Inhibition BaF3 NPM-ALK L1196M cells,[2],99%
"CNC(=O)c1ccc(-c2cc3[nH]nc(NC(=O)c4ccc(N5CCN(C)CC5)cc4NC4CCOCC4)c3cc2Cc2cc(F)cc(F)c2)cc1 [Example 20, N-[5-[(3,5-difluorophenyl)methyl]-6-[4-(methylcarbamoyl)phenyl]-1H-indazol-3-yl]-4-(4-methylpiperazin-1-yl)-2-(tetrahydropyran-4-ylamino)benzamide]",% Inhibition BaF3 NPM-ALK L1196M cells,[2],57%
"CN1CCN(c2ccc(C(=O)Nc3n[nH]c4cc(-c5ccc(O)cc5C(F)(F)F)c(Cc5cc(F)cc(F)c5)cc34)c(NC3CCOCC3)c2)CC1 [Example 9, N-[5-[(3,5-difluorophenyl)methyl]-6-[4-hydroxy-2-(trifluoromethyl)phenyl]-1H-indazol-3-yl]-4-(4-methylpiperazin-1-yl)-2-(tetrahydropyran-4-ylamino)benzamide]",inhibition at 0.2 µM,[1]; [3],100%
same,GI50,[2],1 to 50 nM
same,% Inhibition BaF3 NPM-ALK L1196M cells,[2],99%
"COc1cccc(-c2cc3[nH]nc(NC(=O)c4ccc(N5CCN(C)CC5)cc4NC4CCOCC4)c3cc2Cc2cc(F)cc(F)c2)c1 [Example 24, N-[5-[(3,5-difluorophenyl)methyl]-6-(3-methoxyphenyl)-1H-indazol-3-yl]-4-(4-methylpiperazin-1-yl)-2-(tetrahydropyran-4-ylamino)benzamide]",% Inhibition BaF3 NPM-ALK L1196M cells,[2],52%
"CN1CCN(c2ccc(C(=O)Nc3n[nH]c4cc(-c5cncnc5)c(Cc5cc(F)cc(F)c5)cc34)c(NC3CCOCC3)c2)CC1 [Example 27, N-[5-[(3,5-difluorophenyl)methyl]-6-(pyrimidin-5-yl)-1H-indazol-3-yl]-4-(4-methylpiperazin-1-yl)-2-(tetrahydropyran-4-ylamino)benzamide]",inhibition at 0.2 µM,[1]; [3],87%
same,% Inhibition BaF3 NPM-ALK L1196M cells,[2],62%
"CN1CCN(c2ccc(C(=O)Nc3n[nH]c4cc(-c5cc[nH]c(=O)c5)c(Cc5cc(F)cc(F)c5)cc34)c(NC3CCOCC3)c2)CC1 [Example 16, N-[5-[(3,5-difluorophenyl)methyl]-6-(2-oxo-1H-pyridin-4-yl)-1H-indazol-3-yl]-4-(4-methylpiperazin-1-yl)-2-(tetrahydropyran-4-ylamino)benzamide]",inhibition at 0.2 µM,[1]; [3],88%
"CN1CCN(c2ccc(C(=O)Nc3n[nH]c4cc(-c5ccc(O)cc5)c(Cc5cccc(F)c5)cc34)c(NC3CCOCC3)c2)CC1 [Example 38, N-[5-[(3-fluorophenyl)methyl]-6-(4-hydroxyphenyl)-1H-indazol-3-yl]-4-(4-methylpiperazin-1-yl)-2-(tetrahydropyran-4-ylamino)benzamide]",inhibition at 0.2 µM,[1]; [4],100%
same,GI50,[2],1 to 50 nM
same,% Inhibition BaF3 NPM-ALK L1196M cells,[2],100%
"CN1CCN(c2ccc(C(=O)Nc3n[nH]c4cc(-c5cccc(CO)c5)c(Cc5cc(F)cc(F)c5)cc34)c(NC3CCOCC3)c2)CC1 [Example 13, N-[5-[(3,5-difluorophenyl)methyl]-6-[3-(hydroxymethyl)phenyl]-1H-indazol-3-yl]-4-(4-methylpiperazin-1-yl)-2-(tetrahydropyran-4-ylamino)benzamide]",GI50,[2],100 to 500 nM
same,% Inhibition BaF3 NPM-ALK L1196M cells,[2],97%
